{"source": "patent EP4463162B1", "about": "“CONNEXIN 43 FOR USE IN TREATING BRCA1/2-MUTATED CANCER” (Fundación Profesor Novoa Santos, priority 2022, dated 2023)", "key": {"Cx43_HCC1937 cells": {"tested_on": "Cx43_HCC1937 cells", "experiment": "48 h olaparib dose-response curve, cell viability", "assay_type": "cell-based", "settings": "Homo sapiens"}, "RAD51 and 53BP1": {"tested_on": "RAD51 and 53BP1", "experiment": "RAD51 and 53BP1 immunofluorescence", "assay_type": "cell-based, human", "settings": "olaparib 100 µM, 96 h", "protocol": "2 000-10 000 cells were plated on glass coverslips (Thermo Fisher Scientific) previously coated with poly-D-lysine hydrobromide (Sigma-Aldrich) and cultured until they were approximately 80 % confluent. They were washed with PBS, fixed with 4 % paraformaldehyde (PFA, Sigma-Aldrich) in PBS for 15 min at room temperature and rinsed twice with PBS. Next, cells were incubated with 0.1 M glycine (Sigma-Aldrich) in distilled water to quench PFA for 10 min at room temperature, and then their membranes were permeabilized with 0.2 % Triton X-100 (Sigma-Aldrich) in PBS for 10 min at room temperature. After two 5 min PBS washes, potential nonspecific antibody binding sites were blocked with 1 % bovine serum albumin (BSA; Sigma-Aldrich) diluted in PBST (PBS+0.1 % Tween 20; Sigma-Aldrich) for 30 min at room temperature. Cells were incubated overnight at 4 °C in the dark with primary antibody (see references in Table 3) diluted in 1 % BSA in PBST. The next day, cells were rinsed three times in PBS for 10 min each, and then incubated 1 h at room temperature in the dark with secondary antibody (see references in Table 3) diluted in 1 % BSA in PBST. After that, they were washed three times with PBS for 5 min each, and their nuclei were stained with 1 µg/mL Hoechst (Invitrogen, Thermo Fisher Scientific) diluted in PBS for 10 min. […]"}, "HCC1937 spheroids": {"tested_on": "HCC1937 spheroids", "experiment": "Three-dimensional tumour spheroid proliferation (spheroid area)", "assay_type": "cell-based, human", "settings": "for spheroid size, Cx43-restituted smaller than EV counterparts: after 8 days, 3000 initial cell density", "protocol": "The bottom of 96-well flat bottom microplates (Greiner Bio-One) was coated with 1.5 % solution of UltraPure Low Melting Point Agarose (Invitrogen, Thermo Fisher Scientific). Agarose concave bottoms provide non-adhesive conditions and increase cell contacts. 100-200 µL of single-cell suspensions were plated on top of the agarose diluted in their respective media supplemented with 3.5 % Matrigel Matrix Basement Membrane Growth Factor Reduced (Corning) and 5 ng/mL human recombinant EGF (Sigma-Aldrich). Afterwards, plates were incubated under standard cell culture conditions and spheroids were monitored from day 2 onwards by optical microscopy.\nUniform-sized spheroids were produced by plating 3000 EV and Cx43_HCC1937 cells under ultra-low attachment conditions, as well as 5000 Cx43_HCC1937 cells in parallel to account for the expected anti-proliferative effect of Cx43 in untreated tumour cells (day -4) (Figure 7). […] Spheroids were individually tracked during this time and their size was registered every 48 h.\nAfterwards, spheroid area measurements were pooled for each condition and EV spheroids were compared against Cx43_HCC1937 spheroids, either those plated at 3000 or 5000 initial cell densities.\nNext, Cx43 involvement in the TNBC pathogenesis was studied under more physiological approaches, namely 3D spheroid culture (Figure 10.B) and Anoikis-inducing conditions (Figure 10.C). 3D spheroid culture (Figure 10.B) of HCC1937 cells for 12 days further corroborated the reduction in proliferation determined in 2D culture (Figure 10.A) resulting from Cx43 restoration."}, "SNU251 cells": {"tested_on": "SNU251 cells", "experiment": "Proliferation assay (Cell Counting Kit-8)", "assay_type": "cell-based, human", "settings": "Cx43-restored SNU251 vs EV, 100 and 200 µM olaparib, 96 h, beginning at 48 h", "protocol": "Proliferation of tumour cell lines was evaluated using the Cell Counting Kit-8 (Dojindo Molecular Technologies). This kit comprises WST-8, a highly water-soluble tetrazolium salt, which upon reduction by cellular dehydrogenases of viable cells, gives rise to a yellow formazan dye that is solube in cell culture media and can be quantitated. Briefly, similar number of cells (1 000-5 000) were plated in 96-well plates (Corning) and left to grow for the desired time period under different treatment conditions. Then, medium was renewed (100 µL volume/well) and 10 µL of CCK-8 reagent were added to each well. Plates were incubated in the dark for 3 h at 37 °C, and absorbance was measured at 450 nm in a NanoQuant Infinite 200 plate reader (Tecan).\nIn order to complement previous results with another clinically relevant PARPi-treated cancer, assays were repeated with BRCA1 mutated ovarian cancer cell line SNU251, efficiently nucleofected with EV or Cx43-restituting plasmids (Figure 8). SNU251 wild type (EV) cells had no native Cx43 expression, as assayed by western blot ( Figure 8.A).\nTo further characterize its involvement in BRCA1/2 mutated cancer, Cx43 was restituted by plasmid transfection in BRCA1 mutated TNBC and ovarian carcinoma cell lines, HCC1937 and SNU251, respectively. […]"}}, "data": [{"smiles": "O=C(c1cc(Cc2n[nH]c(=O)c3ccccc23)ccc1F)N1CCN(C(=O)C2CC2)CC1", "note": "[Olaparib, olaparib]", "values": [{"measurement": "IC50", "setting": "Cx43_HCC1937 cells", "result": 350, "unit": "µM"}, {"measurement": "53BP1 foci", "setting": "RAD51 and 53BP1; EV and Cx43_HCC1937", "result": "seemed to rise upon olaparib treatment in both cell lines alike"}, {"measurement": "RAD51 foci", "setting": "RAD51 and 53BP1; EV vs Cx43_HCC1937", "result": "increased just in EV_HCC1937 cells"}, {"measurement": "spheroid appearance", "setting": "HCC1937 spheroids; Cx43_HCC1937 spheroids (3000 and 5000), 8 days of 600 µM olaparib, vs well-defined EV_HCC1937 spheroids", "result": "almost non-existent"}, {"measurement": "spheroid size, Cx43-restituted smaller than EV counterparts", "setting": "HCC1937 spheroids; olaparib 200 µM", "result": 41.7, "unit": "%"}, {"measurement": "spheroid size, Cx43-restituted smaller than EV counterparts", "setting": "HCC1937 spheroids; olaparib 400 µM", "result": 29.68, "unit": "%"}, {"measurement": "spheroid size, Cx43-restituted smaller than EV counterparts", "setting": "HCC1937 spheroids; olaparib 600 µM", "result": 12.57, "unit": "%"}, {"measurement": "response to olaparib (proliferation)", "setting": "SNU251 cells", "result": "significantly better response to olaparib than EV cells"}]}]}
